These results are taken from patent US20050054582A1, “Para-amino benzoic acids as integrin antagonists” (priority 2001, published 2005).

Like-named read-outs stand apart in the source and are kept apart here.

For series [1], the system named is adhesion of Ramos cells to VCAM-1. Put plainly: Adhesion of Ramos cells to immobilized VCAM-1 (domains 1-3). Format: cell-based. To be noted: Homo sapiens. The text has this: In Vitro Assay: Adhesion of Ramos Cells to Immobilized VCAM-1 (Domains 1-3) Preparation of VCAM-1 (Extracellular Domains 1-3)
Complementary DNA (cDNA) encoding 7-domain form of VCAM-1 (GenBank accession #M60335) was obtained using Rapid-Screen™ cDNA library panels (OriGene Technologies, Inc) at Takara Gene Analysis Center (Shiga, Japan). The primers used were 5′-CCAAGGCAGAGTACGCAAAC-3′ (sense) and 5′-TGGCAGGTATTATTAAGGAG-3′ (antisense). PCR amplification of the 3-domain VCAM-1 cDNA was perform using Pfu DNA polymerase (Stratagene) with the following sets of primers: (U-VCAMd1-3) 5′-CCATATGGTACCTGATCAATTTAAAATCGAGACCACCCCAGAA-3′; (L-VCAMdl-3) 5-CCATATAGCAATCCTAGGTCCAGGGGAGATCTCAACAGTAAA-3′. PCR cycle was 94° C. for 45 sec, 55° C. for 45 sec, 72° C. for 2 min, repeating 15 cycles. After the purification of the PCR product, the fragment was digested with KpnI-AvrII. The digested fragment was ligated into pBluescript IISK(−) (Strategene), which was linearized by digesting with KpnI-XhoI. The ligation was followed by transformation to a Dam/Dcm methylase-free E. coli strain SCS110 (Strategene) to create the donor plasmid […]. To direct VCAM-1 molecule into the insect cell secretory pathway, the VCAM-1 coding sequence was fused to signal peptide sequence of honeybee melittin. The resulting melittin-VCAM fusion was placed in correct orientation to the baculovirus polyhedrin promoter. Baculovirus transfer vector containing first 3-domain form VCAM-1 (pH10) was constructed by ligation of 0.9 kb fragment from AvrII/Klenow/BclI digests of pH7 into SalI/Klenow/BamHI digests of pMelBacB (Invitrogen). Recombinant baculovirus was generated by using Bac-N-Blue™ Transfection kit (Invitrogen) according to the manufacture's instruction. The recombinant virus was amplified by infection to High-Five™ insect cells for 5-6 days, and virus titer was determined by plaque assay.
High-Five™ insect cells were pelleted in a 225 ml conical tube by centrifugation at 1000 rpm for 5 min. After discarding the supernatant, the pellet was resuspended in 1.5×10^9 pfu (MOI=5) of high-titer virus solution, followed by incubation for 1.5 hours at room temperature. The cells were pelleted again and washed once in fresh Express Five™ serum free medium. The cells were pelleted again and finally, resuspended in 200 ml of fresh Express Five TM medium, transferred to a 1,000 ml shaker flask, and incubated in a shaker at 27° C., 130 rpm, for 48 hours before the culture supernatant was collected. The purification of 3-domain form of VCAM-1 from the culture supernatant was performed by one-step anion exchange chromatography. Protein concentration was determined by using Coomassie protein assay reagent (Pierce) according to the manufacture's instruction.
Preparation of VCAM-1 Coated Microtiter Plates
Recombinant human VCAM-1 (extracellular domains 1-3) was dissolved at 1.0 μg/ml in PBS. Each well of the microtiter plates (Nalge Nunc International, Fluoronunc Cert, 437958) was coated with 100 μl of substrate or for background control with buffer alone for 15 hours at 4 C. After discarding the substrate solution, the wells were blocked using 150 μl per well of block solution (Kirkegaard Perry Laboratories, 50-61-01) for 90 minutes. The plate was washed with wash buffer containing 24 mM Tris-HCl (pH 7.4), 137 mM NaCl, […] and 2 mM MnCl2 just before addition of the assay.
In Vitro Assay using Ramos Cells
Preparation of Fluorescence Labeled Ramos Cells:
Ramos cells (American Type Culture Collection, Clone CRL-1596) were cultured in RPMI 1640 medium (Nikken Bio Medical Laboratory, CM1101) supplemented with 10% fetal bovine serum (Hyclone, A-1119-L), 100 U/ml penicilin (Gibco BRL, 15140-122) and 100 μg/ml streptomycin (Gibco BRL, 15140-122) in a humidified incubator at 37° C. with 5% CO2. […]

Regarding `O=C(Cc1ccc2nc(Nc3ccccc3)oc2c1)NCC(=O)Nc1ccc(C(=O)O)cc1` [Example 74, 4-({N-[(2-anilino-1,3-benzoxazol-6-yl)acetyl]glycyl}amino)benzoic acid], the melting point (usually the temperature of the solid-liquid transition) is > 280 °C. Besides, the IC50 (as a rule, the concentration at which inhibition is half-maximal) in series [1] (Ramos) was < 500 nM.

Turning to `Cc1ccccc1NC(=O)Nc1ccc(CC(=O)NC2CCCN(c3ccc(C(=O)O)cc3)C2)cc1` (stereo not drawn) [Example 49, 4-[3-({[4-({[(2-methylphenyl)amino]carbonyl}amino)phenyl]acetyl}amino)-1-piperidinyl]benzoic acid], the melting point lay within 236 to 238 °C. Further, the half-maximal inhibitory concentration (IC50) in series [1] (Ramos) was < 500 nM.

The molecule `Cc1ccccc1Nc1nc2ccc(CC(=O)N(CCc3ccccn3)CC(=O)Nc3ccc(C(=O)O)cc3)cc2o1` [Example 83, 4-({N-({2-[(2-methylphenyl)amino]-1,3-benzoxazol-6-yl}acetyl)-N-[2-(2-pyridinyl)ethyl]glycyl}amino)benzoic acid] returned a melting point of 175 to 176 °C. In addition, the IC50 in series [1] (Ramos) is < 500 nM.

Regarding `O=C(CN(CCc1ccc(Oc2ccc(Cl)cc2)cc1)C(=O)Cc1ccc2nc(Nc3ccccc3)oc2c1)Nc1ccc(C(=O)O)cc1` [Example 80], the melting point was 156 to 158 °C. Further, the IC50 in series [1] (Ramos) is > 10000 nM.

`Cc1ccccc1NC(=O)Nc1ccc(CC(=O)NCC(=O)N(CC(C)C)c2ccc(C(=O)O)cc2)cc1` [Example 51, 4-[isobutyl(N-{[4-({[(2-methylphenyl)amino]carbonyl}amino)phenyl]acetyl}glycyl)amino]benzoic acid] yielded a melting point of 131 to 132 °C. Further, in series [1] (Ramos), the IC50 is > 10000 nM.

For `O=C(CN(CCc1cccc(Cl)c1)C(=O)Cc1ccc2nc(Nc3ccccc3)oc2c1)Nc1ccc(C(=O)O)cc1` [Example 78], the melting point was in the range of 162 to 165 °C. Besides, the IC50 in series [1] (Ramos) was 500 to 2000 nM.

For the molecule `Cc1ccccc1NC(=O)Nc1ccc(CC(=O)N[C@H](CCCCN)C(=O)Nc2ccc(C(=O)O)cc2)cc1.O=C(O)C(F)(F)F` [Example 54, 4-[(N^2-{[4-({[(2-methylphenyl)amino]carbonyl}amino)phenyl]acetyl}-D-lysyl)amino]benzoic acid trifluoroacetate], the melting point fell in the range of 73 to 75 °C. Further, the IC50 in series [1] (observed IC50 value ranges, Table 4 does not say whether Ramos-VCAM-1 or Jurkat-VCAM-1, read-out: IC50) was < 500 nM.

Consider `Cc1ccccc1NC(=O)Nc1ccc(CC(=O)NCC(=O)Nc2ccc(C(=O)O)cc2)cc1` [Example 39, 4-[(N-{[4-({[(2-methylphenyl)amino]carbonyl}amino)phenyl]acetyl}glycyl)amino]benzoic acid], for which the melting point fell in the range of 268 to 271 °C. Also, the half-maximal inhibitory concentration (IC50) in series [1] (Ramos) is < 500 nM.

In turn, `Cc1ccccc1NC(=O)Nc1ccc(CC(=O)NC2CCN(c3ccc(C(=O)O)cc3)C2)cc1` (stereo not drawn) [Example 50, 4-[3-({[4-({[(2-methylphenyl)amino]carbonyl}amino)phenyl]acetyl}amino)-1-pyrrolidinyl]benzoic acid] yielded a melting point of 239 to 242 °C. In series [1] (Ramos), the IC50 was < 500 nM.
